We go through 3 compounds from ChEMBL document CHEMBL4680157, “Design, synthesis and biological evaluation of novel TRβ selective agonists sustained by ADME-toxicity analysis” (Eur J Med Chem, 2020).

The nature of data set [1]: Toxicity in F344 rat assessed as effect on serum bilirubin level at 75 ug per 100 g body weight, ig administered daily for 3 days (reference value: 1.4 +/- 0.2 mg/dl). Conditions: in vivo, po, 72 h, dose 75 µg, time 3 day.
Data set [2] in a line: Toxicity in F344 rat assessed as effect on serum ALT/GPT level at 100 ug per 100 g body weight, ig administered daily for 3 days (reference value: 46 +/- 4 U/L). Conditions: in vivo, po, 72 h, dose 100 µg, time 3 day.
The nature of data set [3]: Toxicity in F344 rat assessed as effect on serum glucose level at 100 ug per 100 g body weight, ig administered daily for 3 days (reference value: 151 +/- 13.5 mg/dl). As to conditions: in vivo, po, 72 h, dose 100 µg, time 3 day.
For data set [4], the target named is T1, AMP-activated protein kinase, AMPK (Homo sapiens) (UniProt P54646+O43741+P54619+Q9UGJ0+Q9Y478+Q13131+Q9UGI9). Nature of the data set: Activation of AMPK in human HepG2 cells assessed as ratio of phosphorylated AMPK at 10 uM measured after 24 hrs by Western blot analysis. The data set is classed as cell-based. As to conditions: filed as activator. In general terms: In western blotting, separated proteins are transferred to a membrane and probed.

For data set [5], the target named is T1, AMP-activated protein kinase, AMPK (Homo sapiens). Nature of the data set: Activation of AMPK in human HepG2 cells assessed as ratio of phosphorylated ACC at 10 uM measured after 24 hrs by Western blot analysis. The data set is classed as cell-based. Conditions: filed as activator.
The target in the next data set is T2, SIRT7 (Homo sapiens, UniProt Q9NRC8).
T2 sequence (Q9NRC8 whole entry): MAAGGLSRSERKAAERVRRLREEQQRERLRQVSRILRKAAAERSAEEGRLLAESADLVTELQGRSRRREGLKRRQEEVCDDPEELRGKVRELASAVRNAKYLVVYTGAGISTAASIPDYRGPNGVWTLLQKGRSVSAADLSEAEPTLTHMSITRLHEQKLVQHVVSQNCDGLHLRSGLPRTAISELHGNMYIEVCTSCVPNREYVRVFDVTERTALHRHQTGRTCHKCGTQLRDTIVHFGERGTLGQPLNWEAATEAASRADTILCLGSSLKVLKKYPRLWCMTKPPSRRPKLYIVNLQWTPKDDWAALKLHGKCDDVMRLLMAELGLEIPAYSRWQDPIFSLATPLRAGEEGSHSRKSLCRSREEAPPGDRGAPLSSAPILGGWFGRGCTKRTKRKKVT
In words: Inhibition of SIRT7 (unknown origin) at 10 uM relative to control.

Data set [6] in a line: Toxicity in F344 rat assessed as effect on serum ALT/GPT level at 50 ug per 100 g body weight, ig administered daily for 3 days (reference value: 46 +/- 4 U/L). As to conditions: in vivo, po, 72 h, dose 50 µg, time 3 day.
Data set [7] can be described thus: Toxicity in F344 rat assessed as increase in heart weight at 50 to 100 ug per 100 g body weight, ig administered daily for 3 days. Conditions: in vivo, po, 72 h, dose 50-100 µg, time 3 day.
A short description of data set [8]: Toxicity in F344 rat assessed as effect on serum glucose level at 50 ug per 100 g body weight, ig administered daily for 3 days (reference value: 151 +/- 13.5 mg/dl). As to conditions: in vivo, po, 72 h, dose 50 µg, time 3 day.
A short description of data set [9]: Toxicity in F344 rat assessed as effect on serum cholesterol level at 75 ug per 100 g body weight, ip administered daily for 3 days (reference value: 67.2 +/- 2.5 mg/dl). Conditions: in vivo, 72 h, dose 75 µg, time 3 day. The data set is classed as organism-based.
Data set [10] in a line: Toxicity in F344 rat assessed as effect on serum ALT/GPT level at 75 ug per 100 g body weight, ig administered daily for 3 days (reference value: 46 +/- 4 U/L). Conditions: in vivo, po, 72 h, dose 75 µg, time 3 day.
In another data set the target is T3, CYP1A2 (Homo sapiens, UniProt P05177).
T3 sequence (P05177 whole entry): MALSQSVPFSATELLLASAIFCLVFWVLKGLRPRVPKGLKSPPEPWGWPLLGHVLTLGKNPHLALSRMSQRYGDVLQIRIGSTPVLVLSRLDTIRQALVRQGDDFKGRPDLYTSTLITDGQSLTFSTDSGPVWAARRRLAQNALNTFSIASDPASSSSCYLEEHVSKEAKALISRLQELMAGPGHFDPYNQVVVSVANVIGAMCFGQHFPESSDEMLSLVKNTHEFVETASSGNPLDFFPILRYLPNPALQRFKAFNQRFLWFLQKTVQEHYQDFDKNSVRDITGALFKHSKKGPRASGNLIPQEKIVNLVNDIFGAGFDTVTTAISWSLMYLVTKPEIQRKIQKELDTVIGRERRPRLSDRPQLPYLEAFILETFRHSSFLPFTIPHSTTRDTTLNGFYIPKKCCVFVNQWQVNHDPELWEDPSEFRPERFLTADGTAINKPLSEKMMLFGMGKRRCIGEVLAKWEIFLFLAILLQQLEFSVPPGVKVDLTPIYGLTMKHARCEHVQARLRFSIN
In words: Inhibition of CYP1A2 (unknown origin) at 10 uM relative to control. The data set is classed as ADME.

Data set [11] can be described thus: Toxicity in F344 rat assessed as effect on serum glucose level at 75 ug per 100 g body weight, ip administered daily for 3 days (reference value: 151 +/- 13.5 mg/dl). The class given is organism-based. As to conditions: in vivo, 72 h, dose 75 µg, time 3 day.
A further data set concerns HepG2. Nature of the data set: Induction of lipolysis in human HepG2 cells assessed as reduction in intracellular lipid accumulation at 1 to 10 uM incubated for 24 hrs by Oil Red O staining based spectrophotometric analysis. The class given is functional, cell-based. Conditions: dose 1-10 µM.
A short description of data set [12]: Toxicity in F344 rat assessed as increase in heart and body weight ratio at 50 to 100 ug per 100 g body weight, ig administered daily for 3 days. Conditions: in vivo, po, 72 h, dose 50-100 µg, time 3 day.
Data set [13] is described as follows: Toxicity in F344 rat assessed as effect on serum bilirubin level at 50 ug per 100 g body weight, ig administered daily for 3 days (reference value: 1.4 +/- 0.2 mg/dl). Conditions: in vivo, po, 72 h, dose 50 µg, time 3 day.
Data set [14] can be described thus: Toxicity in F344 rat assessed as effect on serum triglycerides level at 75 ug per 100 g body weight, ig administered daily for 3 days (reference value: 86.8 +/- 10.4 mg/dl). Conditions: in vivo, po, 72 h, dose 75 µg, time 3 day.
A short description of data set [15]: Toxicity in F344 rat assessed as effect on serum AST/GOT level at 50 ug per 100 g of body weight, ig administered daily for 3 days (reference value: 153 +/- 11 U/L). Conditions: in vivo, po, 72 h, dose 50 µg, time 3 day.
A short description of data set [16]: Toxicity in F344 rat assessed as effect on serum ALT/GPT level at 75 ug per 100 g body weight, ip administered daily for 3 days (reference value: 46 +/- 4 U/L). The class given is organism-based. Conditions: in vivo, 72 h, dose 75 µg, time 3 day.
A short description of data set [17]: Toxicity in F344 rat assessed as effect on serum triglycerides level at 100 ug per 100 g body weight, ig administered daily for 3 days (reference value: 86.8 +/- 10.4 mg/dl). Conditions: in vivo, po, 72 h, dose 100 µg, time 3 day.
Data set [18] is described as follows: Toxicity in F344 rat assessed as effect on serum AST/GOT level at 75 ug per 100 g of body weight, ig administered daily for 3 days (reference value: 153 +/- 11 U/L). Conditions: in vivo, po, 72 h, dose 75 µg, time 3 day.
The nature of data set [19]: Toxicity in F344 rat assessed as effect on serum bilirubin level at 100 ug per 100 g body weight, ig administered daily for 3 days (reference value: 1.4 +/- 0.2 mg/dl). As to conditions: in vivo, po, 72 h, dose 100 µg, time 3 day.
Data set [20] in a line: Toxicity in F344 rat assessed as reduction in liver and body weight ratio at 50 to 100 ug per 100 g body weight, ig administered daily for 3 days. The class given is tissue-based. As to conditions: in vivo, po, 72 h, dose 50-100 µg, time 3 day.

Active and inactive are the calls of the source. No cut-off for these calls is given here.

A word on the inhibition: it is the relative decrease from the control value, in per cent. `Cc1cc(OCC(=O)O)cc(C)c1Cc1ccc(N)c(C(C)C)c1`: the Activity in data set [1] is 1.6 mg/dL; in data set [2], 42 U/L; in data set [3], 166 mg/dL; in data set [6], 41 U/L; in data set [7], “Non-Toxic”; in [8], 136 mg/dL. Further, the Activity was 69.6 mg/dL in data set [9]; 43 U/L in [10]; 129 mg/dL in [11]; “Non-Toxic” in [12]; 1.3 mg/dL in data set [13]; 74 mg/dL in data set [14]. The Activity in [15] is 134 U/L; in data set [16], 36 U/L; in [17], 67.8 mg/dL; in [18] it was 119 U/L; in data set [19] it was 1 mg/dL; in data set [20], “Non-Toxic”. The outcome (in data set [4]; in [5]; in the data set on HepG2) was Active. In addition, the inhibition at 10 µM against SIRT7 and against CYP1A2 was < 50% in each case.
As to `CC(=O)Nc1ccc(Cc2c(C)cc(OCC(=O)O)cc2C)cc1C(C)C`, the Activity in data set [1] was 0.9 mg/dL; in data set [2], 37 U/L; in [3], 164 mg/dL; in data set [6], 46 U/L; in data set [7], “Non-Toxic”; in data set [8], 129 mg/dL. Further, the Activity in data set [9] was 71.4 mg/dL; in data set [10] it was 46 U/L; in data set [11], 132 mg/dL; in [12], “Non-Toxic”; in [13] it was 1.1 mg/dL; in data set [14] it was 67 mg/dL. In addition, the Activity in data set [15] is 141 U/L; in [16], 38 U/L; in data set [17], 62.8 mg/dL; in [18], 133 U/L; in [19] it was 1.1 mg/dL; in data set [20], “Non-Toxic”. Besides, the outcome (in data set [4]; in [5]; in the data set with HepG2) was Active. In addition, the inhibition at 10 µM at SIRT7 and at CYP1A2 was < 50% throughout.
For the compound `Cc1cc(OCC(=O)O)cc(C)c1Cc1ccc(O)cc1`, the inhibition at 10 µM against SIRT7 and at CYP1A2 was < 50% in each case.
